Tests used:
obese female Zucker rats = assay: Two weeks of daily oral gavage treatment in chow-fed obese female Zucker rats; type: in vivo, rat; conditions: 100 mg/kg daily oral gavage; for ratio of HDL/non-HDL cholesterol: pretreatment 2.70; for increase of total serum cholesterol: vs pretreatment
Procedure: Dosing vehicle of Compound A (100 mg/kg) was administered to 9-10 week old female obese Zucker rats (i.e. the fa/fa or leptin receptor deficient rat) daily for 14 days in the morning by oral gavage in 1.5 percent carboxymethylcellulose/0.2 percent […]. Tail vein blood for glucose determinations (without anesthesia) and orbital blood samples for serum (with anestehesia for all other determinations) were obtained following a 6 hour fast prior to the initial dose and after one and two weeks of dosing.
Blood serum were assayed for insulin, non-esterified fatty acids, […], total cholesterol, and triglycerides (FIG. 2). Glucose was determined in whole blood (Table 1). Blood serum was also used to produce lipoprotein cholesterol profiles (FIG. 2), and used to determine VLDL plus LDL cholesterol combined (also referred to as apoB containing lipoprotein cholesterol or non-HDL cholesterol), HDL cholesterol, and the ratio of HDL cholesterol to that of VLDL plus LDL cholesterol (FIG. 2). In addition, the effect of Compound A on weight gain after 14 days and the liver to body weight ratio at sacrifice are shown in FIG. 2.

rat hepatocyte cells = assay: 14C-acetate incorporation into saponified and non-saponified lipids in hepatocytes; type: cell-based; conditions: 30 μM; 14C-acetate labeling 4 hr; relative to vehicle control
Procedure: Washout buffer containing; 149 mM sodium chloride, 9.2 mM sodium N-2-hyroxyethylpiperazine-N′-2-ethanesulfonic acid, 1.7 mM fructose, 0.5 mM EGTA, 10 U/mL heparin at pH 7.5 and digestion buffer containing; 6.7 mM potassium chloride, 143 mM sodium chloride, 9.2 mM sodium N-2-hyroxyethylpiperazine-N′-2-ethanesulfonic acid, 5 mM calcium chloride-dihydrate, 1.7 mM fructose, 0.2% bovine serum albumin, 100 U/mL collagenase Type I, 93 U/mL Hyaluronidase, 160 BAEE/mL trypsin inhibitor at pH 7.5 were prepared. Solutions were oxygenate prior to perfusion. Wash buffer containing Dulbecco's Modified Eagle Medium (DMEM) containing 4.5 gm/L D-glucose, 2 mM GlutMax-1, 0.2% BSA, 5% fetal bovine serum (FBS), […], 1.2 μM hydrocortisone and DMEM+HS solution containing DMEM, 2 mM GlutMax-1, 20 nM delta-antinolevulinic acid, 17.4mM MEM non-essential amino acids, 20% FBS, 12 nM insulin and 1.2 μM hydrocortisone was prepared. DMEM solution containing DMEM, 2 mM GlutMax-1, 20 nM delta-aminolevulinic acid and 17.4 mM MEM non-essential amino acids were prepared. Male Sprague-Dawley rats weighing 125-250 gms were maintained on a standard rodent chow diet and freely given water. On the evening prior to cell isolation, selected healthy animals were fed restricted. […] The cell concentration was determined in several fields on the hemocytometer. […]

CC(C)(CO)CCCC[S+]([O-])CCCCC(C)(C)CO [Compound A, 6-(5,5-Dimethyl-6-hydroxy-hexane-1-sulfinyl)-2,2-dimethyl-hexan-1-ol]
blood glucose levels, pretreatment versus posttreatment (obese female Zucker rats; after one and two weeks, 6 hour fast): similar
increase in HDL cholesterol (obese female Zucker rats; after one week of treatment): 2.2 fold
increase of non-HDL cholesterol (VLDL plus LDL cholesterol) (obese female Zucker rats; after one week of treatment): 38%
reduction of serum triglycerides (obese female Zucker rats; after one week of treatment): 48%
ratio of HDL/non-HDL cholesterol (obese female Zucker rats; after one week of treatment): 3.84
increase of total serum cholesterol (obese female Zucker rats; after one week of treatment): 98%
increase in HDL cholesterol (obese female Zucker rats; after two weeks of treatment): 3.1 fold
increase of non-HDL cholesterol (VLDL plus LDL cholesterol) (obese female Zucker rats; after two weeks of treatment): 62%
reduction of serum triglycerides (obese female Zucker rats; after two weeks of treatment): 42%
ratio of HDL/non-HDL cholesterol (obese female Zucker rats; after two weeks of treatment): 4.97
increase of total serum cholesterol (obese female Zucker rats; after two weeks of treatment): 74%
serum β-hydroxy butyrate (obese female Zucker rats; after two weeks, elevated from 2.35 pretreatment): 3.94 mg/dL
serum non-esterified fatty acids (obese female Zucker rats; after two weeks, reduced from 2.28 pretreatment): 0.74 mmol/L
reduction of rate of non-saponifiable lipid synthesis (rat hepatocyte cells): 54%
reduction of rate of saponifiable lipid synthesis (rat hepatocyte cells): 25%

Source: patent US6673780B2, “Sulfoxide and bis-sulfoxide compounds and compositions for cholesterol management and related uses” (Esperion Therapeutics, Inc., priority 2000, dated 2004)
